Reference: patent US7323447B2, “Hepatitis C virus inhibitors” (Bristol-Myers Squibb Company, priority 2005, dated 2008)

Target: T1, HCV NS3/4A protease complex (H77 strain) (Hepatitis C virus genotype 1a, UniProt P27958, C1454S/C1711G)
T1 construct: DNA encoding the recombinant HCV NS3/4A protease complex (amino acids 1027 to 1711) for these strains; inferred from pET21b vector and Ni-NTA purification; made in house; host or cells: Escherichia coli BL21 (DE3), pET21b
Experiment: FRET peptide assay to monitor HCV NS3/4A proteolytic activity, H77 strain
Type: biochemical
Excerpt: HCV NS3 protease complexes, derived from the BMS strain, H77 strain or J4L6S strain, were generated, as described below. These purified recombinant proteins were generated for use in a homogeneous assay (see below) to provide an indication of how effective compounds of the present disclosure would be in inhibiting HCV NS3 proteolytic activity.
The H77 and J4L6S strains were used for production of recombinant NS3/4A protease complexes. DNA encoding the recombinant HCV NS3/4A protease complex (amino acids 1027 to 1711) for these strains was manipulated as described by P. Gallinari et al. (see Gallinari P, Paolini C, Brennan D, Nardi C, Steinkuhler C, De Francesco R. Biochemistry. 38(17):5620-32, (1999)). Briefly, a three-lysine solubilizing tail was added at the 3′-end of the NS4A coding region. The cysteine in the P1 position of the NS4A-NS4B cleavage site (amino acid 1711) was changed to a glycine to avoid the proteolytic cleavage of the lysine tag. Furthermore, a cysteine to serine mutation was introduced by PCR at amino acid position 1454 to prevent the autolytic cleavage in the NS3 helicase domain. […]

T1 sequence (P27958 1027-1711 C1454S/C1711G, one chain of several): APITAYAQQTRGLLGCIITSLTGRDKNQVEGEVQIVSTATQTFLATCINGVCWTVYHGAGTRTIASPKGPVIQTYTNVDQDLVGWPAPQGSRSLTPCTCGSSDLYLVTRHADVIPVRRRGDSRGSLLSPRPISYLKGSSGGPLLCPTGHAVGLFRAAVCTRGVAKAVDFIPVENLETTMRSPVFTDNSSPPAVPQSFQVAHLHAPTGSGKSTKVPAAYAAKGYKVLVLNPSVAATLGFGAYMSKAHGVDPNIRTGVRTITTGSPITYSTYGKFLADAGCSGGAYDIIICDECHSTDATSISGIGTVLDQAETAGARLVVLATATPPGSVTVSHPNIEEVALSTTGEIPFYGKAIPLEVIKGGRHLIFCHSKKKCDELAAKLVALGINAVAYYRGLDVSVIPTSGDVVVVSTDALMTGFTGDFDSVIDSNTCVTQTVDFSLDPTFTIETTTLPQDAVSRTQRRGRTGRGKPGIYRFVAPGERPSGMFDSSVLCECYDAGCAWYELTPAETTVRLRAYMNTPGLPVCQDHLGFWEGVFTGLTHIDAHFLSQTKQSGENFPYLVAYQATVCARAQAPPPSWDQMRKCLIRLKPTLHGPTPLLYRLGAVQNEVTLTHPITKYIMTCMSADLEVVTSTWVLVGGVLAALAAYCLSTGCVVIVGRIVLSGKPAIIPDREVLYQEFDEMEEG

## C=C[C@@H]1C[C@]1(NC(=O)[C@@H]1C[C@@H](OC(=O)N2Cc3cccc(F)c3C2)CN1C(=O)[C@@H](OC(=O)NC(C)(C)C)C(C)(C)C)C(=O)NS(=O)(=O)C1CC1 [Example 56Compound 56]
  IC50: 0.017 µM
